Test [1] has as its system small bowel motility / small intestinal transit. Particulars: cited from earlier work.
Test [2] in a line: Example 4A: glucose tolerance test and cholesterol before and after antibiotic in single patients. The format is in vivo, human. The procedure:
After an administration of rifaximin at 550 mg, three times a day, the peak glucose was 161 mg/dL. Cholesterol for the same patient was 200 and then 171 after treatment. […] After an administration of neomycin at 500 mg, twice daily, the peak glucose was 121. Cholesterol was 202 before the treatment and was down to 178 after treatment.

Test [3] deals with methane on breath testing; constipation symptoms. Particulars: retrospective study; 10 days; cited from earlier work.
Test [4] concerns methane producers with constipation predominant IBS. The settings on record: placebo 5.0±5.1%; cited from earlier work.

For `C` [methane], in test [1] (5 dogs, methane infused through mid-small bowel fistula), the “reduction of proximal small bowel motility (average)” value is listed as 59%. Also, the “slowing of small intestinal transit” value in test [1] (in vivo animal study, infusion of methane into the small intestine) is 59%.
In test [2] (Patient 1, rifaximin 550 mg three times a day, 200 before), `CO[C@H]1/C=C/O[C@@]2(C)Oc3c(C)c(O)c4c(O)c(c5c(nc6cc(C)ccn65)c4c3C2=O)NC(=O)/C(C)=C\C=C\[C@H](C)[C@H](O)[C@@H](C)[C@@H](O)[C@@H](C)[C@H](OC(C)=O)[C@@H]1C` [rifaximin] displayed a cholesterol after treatment of 171. In addition, the “peak glucose on glucose tolerance test after treatment” value in test [2] (Patient 1, rifaximin 550 mg three times a day, 260 before antibiotics) came out at 161 mg/dL. Moreover, in test [3], the “reduction in constipation symptoms” value was 56% and the reduction in methane is given as 28%.
neomycin: in test [2] (Patient 2, neomycin 500 mg twice daily, 154 before antibiotics), the “peak glucose on glucose tolerance test after treatment” value came to 121. In test [2] (Patient 2, neomycin 500 mg twice daily, 202 before), this molecule returned a cholesterol after treatment of 178. The improvement in constipation in test [4] is 44.0±12.3%. For the same molecule, in test [3], the “reduction in constipation symptoms” value was 63% and the reduction in methane is 33%.
